8 compounds from US20250368649A1, “TETRAHYDROPYRIDOPYRIMIDINE PAN-KRAS INHIBITORS” (Mirati Therapeutics, Inc., priority 2022, published 2025) can be followed below.

One experiment relates to H460 cells. In words: Inhibition of KRas-mediated phosphorylation of ERK (Cisbio HTRF pERK), H460 cells. Type of experiment: cell-based. The note with it: Homo sapiens; for inhibition at 0.1 µM: NCI-H460, single point at 100 nM, 3 hrs compound incubation; for IC50: NCI-H460, 3 h, 3 hr compound incubation, Cisbio pERK HTRF.
The target of the next experiment is KRas G12D (Homo sapiens, UniProt P01116, G12D). In words: biochemical. The conditions noted are these: Binding to KRas (IC50 nM) G12D, TR-FRET displacement, KRas G12D.
The next experiment concerns PSN1 cells. Nature of the experiment: Inhibition of KRas-mediated phosphorylation of ERK (Cisbio HTRF pERK), PSN1 cells. The conditions noted are these: Homo sapiens, PSN1, 3 h, 3 hour compound incubation, Cisbio pERK HTRF. Format: cell-based. As for the experimental part: Inhibition of KRas Phosphorylation of ERK (HTRF) by Exemplary Compounds of Formula (I) Cisbio HTRF Advanced pERK Assay Catalog #64AERPEH • Cells: MKN1, PSN1 • Procedure: • Day 1: Seed 6,000 cells/well -25 µl/well in 384-well white solid bottom plate; RPM1_10% FBS.

Another experiment concerns the target KRas G12V (Homo sapiens, UniProt P01116, G12V). Nature of the experiment: biochemical. The conditions noted are these: Binding to KRas (IC50 nM) G12V, TR-FRET displacement, KRas G12V.
The test system of another experiment is H727 cells. In words: Inhibition of KRas-mediated phosphorylation of ERK (Cisbio HTRF pERK), H727 cells. Type of experiment: cell-based. The note with it: Homo sapiens, NCI-H727, 3 h, 3 hr compound incubation, Cisbio pERK HTRF.
The next experiment has as its system HCT116 cells. Nature of the experiment: Inhibition of KRas-mediated phosphorylation of ERK (Cisbio HTRF pERK), HCT116 cells. Format: cell-based. The note with it: Homo sapiens; for inhibition at 0.1 µM: HCT-116, single point at 100 nM, 3 hrs compound incubation; for IC50: HCT-116, 3 h, 3 hr compound incubation, Cisbio pERK HTRF.
Another experiment deals with KRas G12R (Homo sapiens, UniProt P01116, G12R). Nature of the experiment: biochemical. The note with it: Binding to KRas (IC50 nM) G12R, TR-FRET displacement, KRas G12R.
The subject of a further experiment is A549 cells. In words: Inhibition of KRas-mediated phosphorylation of ERK (Cisbio HTRF pERK), A549 cells. Type of experiment: cell-based. The conditions noted are these: Homo sapiens, A549, 3 h, 3 hr compound incubation, Cisbio pERK HTRF.
For the next experiment, the system named is MKN1 cells. Nature of the experiment: Inhibition of KRas-mediated phosphorylation of ERK (Cisbio HTRF pERK), MKN1 cells. Format: cell-based. The note with it: Homo sapiens, MKN-1, 3 hour compound incubation, Cisbio pERK HTRF. Put shortly:
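Growth medium is RPMI with 10% FBS, and each well receives 6,000 cells on the first day of the protocol.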

Another experiment deals with ASPC1 cells. In words: Inhibition of KRas-mediated phosphorylation of ERK (Cisbio HTRF pERK), ASPC1 cells. Format: cell-based. The conditions noted are these: Homo sapiens, ASPC1, 3 h, AsPC-1 cells; 3 hr compound incubation; Cisbio pERK HTRF.

Where only a bound is given, the exact number is not on record here.

Chain of KRas G12D (P01116 1-169 isoform P01116-2 G12D): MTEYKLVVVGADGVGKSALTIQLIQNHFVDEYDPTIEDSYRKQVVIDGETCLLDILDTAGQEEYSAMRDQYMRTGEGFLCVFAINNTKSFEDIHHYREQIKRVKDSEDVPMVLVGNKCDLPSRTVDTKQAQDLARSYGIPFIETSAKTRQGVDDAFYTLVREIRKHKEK
Chain of KRas G12R (P01116 1-169 isoform P01116-2 G12R): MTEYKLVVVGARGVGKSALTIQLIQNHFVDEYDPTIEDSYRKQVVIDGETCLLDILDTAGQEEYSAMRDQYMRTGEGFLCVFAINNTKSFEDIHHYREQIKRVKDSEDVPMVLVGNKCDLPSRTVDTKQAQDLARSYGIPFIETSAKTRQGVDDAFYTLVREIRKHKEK
Chain of KRas G12V (P01116 1-169 isoform P01116-2 G12V): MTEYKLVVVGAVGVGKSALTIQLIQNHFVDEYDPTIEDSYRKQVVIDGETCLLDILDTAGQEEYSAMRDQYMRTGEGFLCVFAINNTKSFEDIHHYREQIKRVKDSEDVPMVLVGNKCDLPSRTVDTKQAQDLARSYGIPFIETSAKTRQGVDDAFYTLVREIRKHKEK

Regarding `CCc1c(F)ccc2cc(O)cc(N3CCc4c(nc(OC[C@@]56CCCN5C[C@H](F)C6)nc4N4CCCn5nc(NC(C)=O)cc5C4)C3)c12` [Example 356, N-(5-(7-(8-ethyl-7-fluoro-3-hydroxynaphthalen-1-yl)-2-(((2R,7aS)-2-fluorohexahydro-1H-pyrrolizin-7a-yl)methoxy)-5,6,7,8-tetrahydropyrido[3,4-d]pyrimidin-4-yl)-5,6,7,8-tetrahydro-4H-pyrazolo[1,5-a][1,4]diazepin-2-yl)acetamide], the inhibition at 0.1 µM in the experiment with H460 cells is 28%; in the experiment with HCT116 cells it was -2%. Moreover, the IC50 was below 2 nM on KRas G12D; above 10000 nM in the experiment on PSN1 cells; 3 nM on KRas G12V; 284 nM with H727 cells; 3 nM at KRas G12R; 524 nM in the experiment with A549 cells. The IC50 amounted to 216 nM with MKN1 cells and 262 nM with ASPC1 cells.
Consider `CCc1c(F)ccc2cc(O)cc(N3CCc4c(nc(OC[C@@]56CCCN5C[C@H](F)C6)nc4N4CCCc5n[nH]cc5C4)C3)c12` [Example 361, 4-(4-(7,8-dihydropyrazolo[4,3-c]azepin-5(2H,4H,6H)-yl)-2-(((2R,7aS)-2-fluorohexahydro-1H-pyrrolizin-7a-yl)methoxy)-5,6-dihydropyrido[3,4-d]pyrimidin-7(8H)-yl)-5-ethyl-6-fluoronaphthalen-2-ol], for which the inhibition at 0.1 µM in the experiment with H460 cells is 1%; in the experiment on HCT116 cells it was -11%. For the same compound, the IC50 at KRas G12D was 14 nM; in the experiment on PSN1 cells, above 10000 nM; on KRas G12V, 6 nM; in the experiment on H727 cells, 466 nM; on KRas G12R, 5 nM; in the experiment on MKN1 cells it was 401 nM. Moreover, in the experiment with ASPC1 cells, the IC50 worked out at 636 nM.
For the compound `CCc1c(F)ccc2cc(O)cc(N3CCc4c(nc(OC[C@@]56CCCN5C[C@H](F)C6)nc4N4CCCn5nc(NS(C)(=O)=O)cc5C4)C3)c12` [Example 364, N-(5-(7-(8-ethyl-7-fluoro-3-hydroxynaphthalen-1-yl)-2-(((2R,7aS)-2-fluorohexahydro-1H-pyrrolizin-7a-yl)methoxy)-5,6,7,8-tetrahydropyrido[3,4-d]pyrimidin-4-yl)-5,6,7,8-tetrahydro-4H-pyrazolo[1,5-a][1,4]diazepin-2-yl)methanesulfonamide], the values for the inhibition at 0.1 µM in the experiment on H460 cells and with HCT116 cells were 13% and 10%, respectively. Moreover, the half-inhibitory concentration (IC50) is 2 nM on KRas G12D; above 10000 nM in the experiment on PSN1 cells; 3 nM at KRas G12V; 716 nM in the experiment with H727 cells; below 2 nM on KRas G12R; 456 nM with MKN1 cells. This compound also yielded a half-maximal inhibitory concentration (IC50) in the experiment on ASPC1 cells of 997 nM.
Take `CCc1c(F)ccc2cc(O)cc(N3CCc4c(nc(OC[C@@]56CCCN5C[C@H](F)C6)nc4N4CCCC(O)(C(N)=O)C4)C3)c12` (stereo partly drawn) [Example 368, 1-(7-(8-ethyl-7-fluoro-3-hydroxynaphthalen-1-yl)-2-(((2R,7aS)-2-fluorohexahydro-1H-pyrrolizin-7a-yl)methoxy)-5,6,7,8-tetrahydropyrido[3,4-d]pyrimidin-4-yl)-3-hydroxypiperidine-3-carboxamide]: the inhibition at 0.1 µM came to 31% in the experiment with H460 cells and 1% in the experiment on HCT116 cells. Besides, the half-inhibitory concentration (IC50) stood at 10 nM on KRas G12D; 7050 nM with PSN1 cells; 5 nM on KRas G12V; 489 nM in the experiment on H727 cells; 6 nM at KRas G12R; 69.1 nM in the experiment on MKN1 cells. This compound returned a concentration for half-maximal inhibition (IC50) in the experiment on ASPC1 cells of 666 nM.
For the compound `CCc1c(NC)nn2c1CN(c1nc(OC[C@@]34CCCN3C[C@H](F)C4)nc3c1CCN(c1cc(O)cc4ccc(F)c(CC)c14)C3)CCC2` [Example 404], the IC50 was 178 nM in the experiment on H460 cells; 5 nM at KRas G12D; above 10000 nM in the experiment on PSN1 cells; 6 nM on KRas G12V; 188 nM in the experiment with H727 cells; 424 nM in the experiment with HCT116 cells. Besides, the IC50 on KRas G12R came out at 3 nM; in the experiment with A549 cells it was 134 nM; in the experiment on MKN1 cells, 43.5 nM; in the experiment on ASPC1 cells it was 182 nM.
With `CCc1c(F)ccc2cc(O)cc(N3CCc4c(nc(OC[C@@]56CCCN5C[C@H](F)C6)nc4N4CCCSCC4)C3)c12` [Example 417, 5-ethyl-6-fluoro-4-(2-(((2R,7aS)-2-fluorohexahydro-1H-pyrrolizin-7a-yl)methoxy)-4-(1,4-thiazepan-4-yl)-5,6-dihydropyrido[3,4-d]pyrimidin-7(8H)-yl)naphthalen-2-ol], the half-maximal inhibitory concentration (IC50) in the experiment on H460 cells is 84 nM; on KRas G12D, 13 nM; in the experiment with PSN1 cells, 5700 nM; on KRas G12V it was below 2 nM; in the experiment with H727 cells it was 128 nM; in the experiment with HCT116 cells, 273 nM. Also, the half-inhibitory concentration (IC50) on KRas G12R is below 2 nM; in the experiment with A549 cells, 63 nM; in the experiment on MKN1 cells, 29.3 nM; in the experiment with ASPC1 cells it was 208 nM.
As for `CCc1c(F)ccc2cc(O)cc(N3CCc4c(nc(OCC5(CN(C)C)CC5)nc4N4CCCn5nncc5C4)C3)c12` [Example 430, 4-(4-(7,8-dihydro-4H-[1,2,3]triazolo[1,5-a][1,4]diazepin-5(6H)-yl)-2-((1-((dimethylamino)methyl)cyclopropyl)methoxy)-5,6-dihydropyrido[3,4-d]pyrimidin-7(8H)-yl)-5-ethyl-6-fluoronaphthalen-2-ol], the IC50 is 439 nM with H460 cells; below 2 nM on KRas G12D; above 10000 nM in the experiment with PSN1 cells; below 2 nM on KRas G12V; 269 nM in the experiment on H727 cells; 1030 nM in the experiment with HCT116 cells. Also, the IC50 at KRas G12R was below 2 nM; with A549 cells it was 592 nM; with MKN1 cells it was 94.9 nM; with ASPC1 cells, 134 nM.
With `Oc1cc(N2CCc3c(nc(OC[C@@]45CCCN4C[C@H](F)C5)nc3N3CCCC4(CCSC4)C3)C2)c2c(Cl)c(F)ccc2c1` (stereo partly drawn) [Example 464, 5-chloro-6-fluoro-4-(2-(((2R,7aS)-2-fluorohexahydro-1H-pyrrolizin-7a-yl)methoxy)-4-(2-thia-7-azaspiro[4.5]decan-7-yl)-5,6-dihydropyrido[3,4-d]pyrimidin-7(8H)-yl)naphthalen-2-ol], the inhibition at 0.1 µM is -24% in the experiment with H460 cells and 14% with HCT116 cells. The IC50 was 9 nM at KRas G12D; above 10000 nM with PSN1 cells; 8 nM on KRas G12V; 1180 nM in the experiment on H727 cells; 12 nM on KRas G12R; 676 nM in the experiment with MKN1 cells. The same compound yielded an IC50 with ASPC1 cells of 1000 nM.
